Measured values as given in ChEMBL document CHEMBL1201862, “PubChem BioAssay data set” (2004).
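Method: 48-hour compound exposure of cells in 96-well plates, five concentrations, linear interpolation of endpoints. GI50 = concentration required for 50% inhibition of growth.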 Activity calls are given as the source filed them. Rule as the data show it: active = GI50 up to about 1.1 µM and inactive = higher.

Tests used:
Experiment in all cases: DTP human tumour cell line panel, 48 h
A549 = test system: A549
CCRF-CEM = test system: CCRF-CEM
COLO 205 = test system: COLO 205
EKVX = test system: EKVX
HL-60 = test system: HL-60
HT-29 = test system: HT-29
KM12 = test system: KM12
MDA-MB-435 = test system: MDA-MB-435
NCI-H226 = test system: NCI-H226
NCI/ADR-RES = test system: NCI/ADR-RES
OVCAR-4 = test system: OVCAR-4
OVCAR-8 = test system: OVCAR-8
RPMI-8226 = test system: RPMI-8226
SF-539 = test system: SF-539
SR = test system: SR
T47D = test system: T47D
TK-10 = test system: TK-10
UACC-62 = test system: UACC-62
UO-31 = test system: UO-31
NCI-H460 = test system: NCI-H460

CCCC1=NC(C(F)(F)F)(C(F)(F)F)N=C(N2CCOCC2)O1
GI50 (A549): > 100 µM (inactive) | GI50 (CCRF-CEM): > 100 µM (inactive) | GI50 (COLO 205): > 100 µM (inactive) | GI50 (EKVX): > 100 µM (inactive) | GI50 (HL-60): > 100 µM (inactive) | GI50 (HT-29): > 100 µM (inactive) | GI50 (KM12): > 100 µM (inactive) | GI50 (MDA-MB-435): > 100 µM (inactive) | GI50 (NCI-H226): > 100 µM (inactive) | GI50 (NCI/ADR-RES): > 100 µM (inactive) | GI50 (OVCAR-4): 80.2 µM (inactive) | GI50 (OVCAR-8): > 100 µM (inactive) | GI50 (RPMI-8226): > 100 µM (inactive) | GI50 (SF-539): > 100 µM (inactive) | GI50 (SR): > 100 µM (inactive) | GI50 (T47D): > 100 µM (inactive) | GI50 (TK-10): > 100 µM (inactive) | GI50 (UACC-62): > 100 µM (inactive) | GI50 (UO-31): > 100 µM (inactive)

CCN(CC)CCc1c2c(nc3ccccc13)C(=O)c1cccnc1C2=O
GI50 (A549): 2.88 µM (inactive) | GI50 (CCRF-CEM): 1.97 µM (inactive) | GI50 (COLO 205): 1.58 µM (inactive) | GI50 (EKVX): 2.89 µM (inactive) | GI50 (HL-60): 0.251 µM (active) | GI50 (HT-29): 3.31 µM (inactive) | GI50 (KM12): 0.857 µM (active) | GI50 (MDA-MB-435): 1.93 µM (inactive) | GI50 (NCI-H226): 4.68 µM (inactive) | GI50 (NCI/ADR-RES): 4.28 µM (inactive) | GI50 (OVCAR-4): 0.726 µM (active) | GI50 (OVCAR-8): 3.52 µM (inactive) | GI50 (RPMI-8226): 1.88 µM (inactive) | GI50 (SR): 0.211 µM (active) | GI50 (T47D): 1.96 µM (inactive) | GI50 (TK-10): 2.66 µM (inactive) | GI50 (UACC-62): 1.54 µM (inactive) | GI50 (UO-31): 1.57 µM (inactive)

C=C1C(C(=O)OC)[C@H]1C(=O)OC (some centres not stated)
GI50 (A549): > 100 µM (inactive) | GI50 (COLO 205): > 100 µM (inactive) | GI50 (EKVX): > 100 µM (inactive) | GI50 (HL-60): > 100 µM (inactive) | GI50 (HT-29): > 100 µM (inactive) | GI50 (KM12): > 100 µM (inactive) | GI50 (MDA-MB-435): > 100 µM (inactive) | GI50 (NCI-H226): > 100 µM (inactive) | GI50 (NCI-H460): > 100 µM (inactive) | GI50 (NCI/ADR-RES): > 100 µM (inactive) | GI50 (OVCAR-4): > 100 µM (inactive) | GI50 (OVCAR-8): > 100 µM (inactive) | GI50 (RPMI-8226): > 100 µM (inactive) | GI50 (SF-539): > 100 µM (inactive) | GI50 (SR): > 100 µM (inactive) | GI50 (T47D): > 100 µM (inactive) | GI50 (TK-10): > 100 µM (inactive) | GI50 (UACC-62): > 100 µM (inactive) | GI50 (UO-31): > 100 µM (inactive)

COc1cc(COC(=O)NC(Cc2cccs2)C(=O)O)c([N+](=O)[O-])cc1OC (configuration not stated)
GI50 (A549): > 100 µM (inactive) | GI50 (CCRF-CEM): > 100 µM (inactive) | GI50 (COLO 205): > 100 µM (inactive) | GI50 (EKVX): > 100 µM (inactive) | GI50 (HL-60): > 100 µM (inactive) | GI50 (HT-29): > 100 µM (inactive) | GI50 (KM12): > 100 µM (inactive) | GI50 (MDA-MB-435): > 100 µM (inactive) | GI50 (NCI-H226): > 100 µM (inactive) | GI50 (NCI-H460): > 100 µM (inactive) | GI50 (NCI/ADR-RES): > 100 µM (inactive) | GI50 (OVCAR-8): > 100 µM (inactive) | GI50 (RPMI-8226): > 100 µM (inactive) | GI50 (SF-539): > 100 µM (inactive) | GI50 (SR): > 100 µM (inactive) | GI50 (T47D): > 100 µM (inactive) | GI50 (TK-10): > 100 µM (inactive) | GI50 (UACC-62): > 100 µM (inactive) | GI50 (UO-31): > 100 µM (inactive)

O=c1cc(N2CCOCC2)n2c(ccc3ccccc32)n1
GI50 (A549): > 100 µM (inactive) | GI50 (CCRF-CEM): > 100 µM (inactive) | GI50 (COLO 205): > 100 µM (inactive) | GI50 (EKVX): > 100 µM (inactive) | GI50 (HL-60): > 100 µM (inactive) | GI50 (HT-29): > 100 µM (inactive) | GI50 (KM12): > 100 µM (inactive) | GI50 (MDA-MB-435): > 100 µM (inactive) | GI50 (NCI-H226): > 100 µM (inactive) | GI50 (NCI/ADR-RES): > 100 µM (inactive) | GI50 (OVCAR-8): > 100 µM (inactive) | GI50 (RPMI-8226): > 100 µM (inactive) | GI50 (SF-539): > 100 µM (inactive) | GI50 (SR): > 100 µM (inactive) | GI50 (T47D): > 100 µM (inactive) | GI50 (TK-10): > 100 µM (inactive) | GI50 (UACC-62): > 100 µM (inactive) | GI50 (UO-31): > 100 µM (inactive)

O=C1NC2CCCCC2NC1=C(C(=O)c1ccccc1)C(=O)c1ccccc1 (configuration not stated)
GI50 (A549): 34 µM (inactive) | GI50 (CCRF-CEM): 11 µM (inactive) | GI50 (COLO 205): 32.8 µM (inactive) | GI50 (EKVX): 70.6 µM (inactive) | GI50 (HL-60): 46.7 µM (inactive) | GI50 (HT-29): 36.8 µM (inactive) | GI50 (KM12): 42.7 µM (inactive) | GI50 (MDA-MB-435): 46.6 µM (inactive) | GI50 (NCI-H226): 12.5 µM (inactive) | GI50 (NCI-H460): 27.4 µM (inactive) | GI50 (NCI/ADR-RES): 29.2 µM (inactive) | GI50 (OVCAR-8): 25.5 µM (inactive) | GI50 (RPMI-8226): 28.8 µM (inactive) | GI50 (SF-539): 43.2 µM (inactive) | GI50 (SR): 27.2 µM (inactive) | GI50 (T47D): > 100 µM (inactive) | GI50 (TK-10): 84.1 µM (inactive) | GI50 (UACC-62): 22.8 µM (inactive) | GI50 (UO-31): 26.9 µM (inactive)
